Experimental data reported in ChEMBL document CHEMBL3244144, “Piperidylalkylindoles. 1. Hypotensive activity of 3-[2-(phenoxypiperidyl)ethyl]indoles” (J Med Chem, 1978).
Active and inactive are the calls of the source. The calls are words filed in the database; no cut-off is given here.

How the values were obtained:
[1] = system: Rattus norvegicus; assay: Antihypertensive activity in spontaneous hypertensive rat assessed as change in systolic blood pressure at 100 mg/kg, po dosed at 0 hrs on day 1, 2 and 3 measured on day 3 by indirect tail-cuff method; format: functional
[2] = system: Rattus norvegicus; assay: Antihypertensive activity in spontaneous hypertensive rat assessed as change in systolic blood pressure at 100 mg/kg, po dosed at 0 hrs on day 1, 2 and 3 measured on day 1 by indirect tail-cuff method; format: functional
[3] = system: Rattus norvegicus; assay: Toxicity in spontaneous hypertensive rat model at 100 mg/kg, po dosed at 0 hrs on day 1, 2 and 3 measured on day 3; format: organism-based; set-up: dose 100 mg/kg, route oral; settings: in vivo
[4] = system: Rattus norvegicus; assay: Antihypertensive activity in spontaneous hypertensive rat assessed as change in systolic blood pressure at 50 mg/kg, po dosed at 0 hrs on day 1, 2 and 3 measured on day 3 by indirect tail-cuff method; format: functional, Artery

Row | Structure (SMILES) | Activity ([1]; Artery) | Activity ([2]; Artery) | Activity [1] [mmHg] | Activity [2] [mmHg] | other results
1 | O=C(C(=O)N1CCC(Oc2ccc(Cl)cc2)CC1)c1c[nH]c2ccccc12 | inactive | inactive | – | – | –
2 | O=C(C(=O)N1CCC(Oc2ccc(C(F)(F)F)cc2)CC1)c1c[nH]c2ccccc12 | inactive | inactive | – | – | –
3 | COc1cc2[nH]c(C)c(CCN3CCC(Oc4ccc(C(F)(F)F)cc4)CC3)c2cc1OC | – | – | -58 | -24 | –
4 | Cc1ccc(OC2CCN(C(=O)C(=O)c3c[nH]c4ccccc34)CC2)cc1 | inactive | inactive | – | – | –
5 | c1ccc(OC2CCN(CCc3c[nH]c4ccccc34)CC2)cc1 | – | – | -31 | -10 | –
6 | Cc1cccc(OC2CCN(C(=O)C(=O)c3c[nH]c4ccccc34)CC2)c1 | inactive | inactive | – | – | –
7 | Cc1ccc(OC2CCN(CCc3c[nH]c4ccccc34)CC2)cc1 | – | – | -57 | -48 | –
8 | Clc1ccc(OC2CCN(CCc3c[nH]c4ccccc34)CC2)cc1 | – | – | -54 | -47 | –
9 | O=C(C(=O)N1CCC(Oc2ccc(F)cc2)CC1)c1c[nH]c2ccccc12 | inactive | inactive | – | – | –
10 | Cc1ccccc1OC1CCN(CCc2c[nH]c3ccccc23)CC1 | – | – | -8 | -7 | –
11 | Cc1[nH]c2ccccc2c1CCN1CCC(Oc2ccc(F)cc2)CC1 | – | – | – | -18 | Activity [3]: Toxic
12 | Cc1[nH]c2ccccc2c1C(=O)C(=O)N1CCC(Oc2ccc(F)cc2)CC1 | inactive | inactive | – | – | –
13 | O=C(C(=O)N1CCC(Oc2cccc(Cl)c2)CC1)c1c[nH]c2ccccc12 | inactive | inactive | – | – | –
14 | Brc1ccc(OC2CCN(CCc3c[nH]c4ccccc34)CC2)cc1 | – | – | -59 | -49 | –
15 | O=C(C(=O)N1CCC(Oc2ccccc2)CC1)c1c[nH]c2ccccc12 | inactive | inactive | – | – | –
16 | COc1ccc2[nH]cc(CCN3CCC(Oc4ccc(F)cc4)CC3)c2c1 | – | – | -6 | -2 | –
17 | O=C(C(=O)N1CCC(Oc2ccc(F)cc2)CC1)c1c[nH]c2ccc(OCc3ccccc3)cc12 | inactive | inactive | – | – | –
18 | Fc1ccc(OC2CCN(CCc3c[nH]c4ccc(OCc5ccccc5)cc34)CC2)cc1 | – | – | -16 | -2 | –
19 | Clc1cccc(OC2CCN(CCc3c[nH]c4ccccc34)CC2)c1 | – | – | -8 | -11.2 | –
20 | Cl.O=C(NC1CCN(CCc2c[nH]c3ccccc23)CC1)c1ccccc1 [INDORAMIN HYDROCHLORIDE] | – | – | – | – | Activity [4]: -79 mmHg
21 | Fc1ccc(OC2CCN(CCc3c[nH]c4ccccc34)CC2)cc1 | – | – | -55 | -56 | –
22 | Cc1ccccc1OC1CCN(C(=O)C(=O)c2c[nH]c3ccccc23)CC1 | inactive | inactive | – | – | –
23 | COc1cc2[nH]c(C)c(C(=O)C(=O)N3CCC(Oc4ccc(C(F)(F)F)cc4)CC3)c2cc1OC | inactive | inactive | – | – | –
24 | FC(F)(F)c1ccc(OC2CCN(CCc3c[nH]c4ccccc34)CC2)cc1 | – | – | – | -24 | Activity [3]: Toxic
25 | COc1ccc2[nH]cc(C(=O)C(=O)N3CCC(Oc4ccc(F)cc4)CC3)c2c1 | inactive | inactive | – | – | –
26 | Cc1ccc(OC2CCCN(C(=O)C(=O)c3c[nH]c4ccccc34)C2)cc1 (stereo not given) | inactive | inactive | – | – | –
27 | Cc1ccc(OC2CCCN(CCc3c[nH]c4ccccc34)C2)cc1 (stereo not given) | – | – | -12 | -63 | –
28 | Cc1cccc(OC2CCN(CCc3c[nH]c4ccccc34)CC2)c1 | – | – | -14 | -3 | –
